# Reference: US9315451B2, “Tetracycline compounds” (priority 2009, dated 2016)
# Read-outs that look alike come from different tables or passages of the source.
# Legend:
# [1] = system: tetracycline-resistant tet(M) S. pneumoniae strain SP160; test: Neutropenic respiratory infection model for S. pneumoniae (murine lung infection); assay type: in vivo; settings: neutropenic BALB/c mice, SP160 intranasal, 30 mg/kg orally at 2 and 12 hours post-infection, lung CFU at 24 hours
# Description: Neutropenic Respiratory Infection Models for S. pneumoniae
# Compounds were tested in a neutropenic BALB/c murine model of lung infection challenged with tetracycline-resistant tet(M) S. pneumoniae strain SP160. Mice were made neutropenic by pre-treatment with cyclophosphamide and infected with SP160 via intranasal administration. Mice were dosed orally with 30 mg/kg compound at 2 and 12 hours post-infection. At 24 hours following initiation of treatment, mice were euthanized and bacterial reduction in the lung was quantified by plating lung homogenates. Data was recorded as log10 reduction in lung colony forming units versus an untreated control group.
# [2] = system: S. aureus Smith (ATCC 13709); test: Mouse systemic infection (septicemia) model, S. aureus Smith; assay type: in vivo; settings: Staphylococcus aureus, CD-1 female mice; for responders at 3 mg/kg: ATCC13709, iv, IV 3 mg/kg one hour post infection, read-out: SA Smith septicemia survival IV (3 mg/kg); for responders at 3 mg/kg / responders at 30 mg/kg: 48 h, survival at 48 hours; for responders at 30 mg/kg: ATCC13709, po, PO 30 mg/kg one hour post infection, read-out: SA Smith septicemia survival PO (30 mg/kg); for ED50: ATCC13709, dose that prevents 50% of the mice from death, 48 hours
# Procedure, shortened: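 Female CD-1 mice (18-22 g) infected IP with an inoculum lethal to all within 24–48 h. Compound given 1 h post-infection IV ([…]) or PO ([…]), typically six mice per dose group; survival followed for 48 h and PD50 (mg/kg) derived from 48 h survival.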
# [3] = Pharmacokinetic studies in rats; assay type: in vivo; settings: rat, plasma, male Sprague Dawley rats, fasted; for clearance: read-out: Cl, IV Rat PK; for bioavailability: oral 10 mg/kg vs IV 1 mg/kg, read-out: % F (oral bioavailability), Oral Rat PK; for Cmax: read-out: Cmax, IV Rat PK
# Description: Pharmacokinetic Studies in Rats Test compounds were evaluated in fasted (no food for 18 hours prior to dosing) male Sprague Dawley rats (3 animals per group) by administration of 1 mg/kg intravenously into the jugular vein and […] by oral gavage. Ten plasma samples were drawn for each dosing route up to 24 hours into heparin-coated vacutainer tubes. The plasma concentrations of the test compounds were quantified by LC/MS/MS using an internal standards. WinNONLIN was used to determine PK parameters ±standard deviation (AUC, Cmax, CL, Vss and % oral bioavailabilty (% F) and are set forth in Table F.
# [4] = system: Uropathogenic E. coli EC200; test: Murine kidney infection model, uropathogenic E. coli EC200; assay type: in vivo; settings: BALB/c mice; for log reduction at 2 mg/kg: PO 2 mg/kg at 12 and 24 hours post infection; for EC200 UTI IV, log10 reduction in CFUs in the kidney versus untreated controls: @ 5 mpk in cells (column head 3 mg/kg)
# Description: (§1) Kidney Infection Models for Uropathogenic E. coli EC200 and K. pneumoniae ESBL Isolate KP453
# Compounds were tested in a BALB/c murine kidney infection model challenged with tetracycline-resistant E. coli strain uropathogenic […] via intravenous injection. […] For IV administration test compound was dosed at 3 mg/kg. Thirty-six hours following initiation of treatment, mice were euthanized and bacterial reduction in the kidney was quantified by plating kidney homogenates. Results are reported in Table D as log10 reduction in colony forming units (CFUs) in the kidney versus untreated controls (receiving no test compound).
# [5] = system: K. pneumoniae ESBL Isolate KP453; test: Murine kidney infection model, K. pneumoniae ESBL isolate KP453; assay type: in vivo; settings: BALB/c mice; for log reduction at 50 mg/kg: Klebsiella pneumoniae, po, 36 h, PO 50 mg/kg at 9 and 24 hours post infection, read-out: KP453 ESBL UTI PO, log10 reduction in CFUs in the kidney versus untreated controls; for KP453 ESBL UTI IV, log10 reduction in CFUs in the kidney versus untreated controls: IV 20 mg/kg
# Description: as §1
# Compounds were also tested in BALB/c murine kidney infection model challenged with levofloxacin-resistant, ESBL^+ strain KP453 via intravenous injection with 2% carageenen. At 9 and 24 hours post infection mice were treated orally with 50 mg/kg of test compound. For IV administration, test compounds were dosed at 20 mg/kg. At 36 hours following initiation of treatment, mice were euthanized and bacterial reduction in the kidney was quantified by plating homogenates. Results are reported in Table D as log10 reduction in colony forming units (CFUs) in the kidney versus untreated controls (receiving no test compound).
# [6] = system: tetracycline-resistant tet(M) MRSA strain SA191; test: Neutropenic respiratory infection model for MRSA (murine lung infection); assay type: in vivo, Staphylococcus aureus; settings: neutropenic BALB/c mice, SA191 intranasal, 50 mg/kg orally at 2 and 12 hours, lung CFU at 24 hours
# Description: Neutropenic Respiratory Infection Model for MRSA
# Compounds were tested in a neutropenic BALB/c murine model of lung infection challenged with a tetracycline-resistant tet(M) MRSA strain SA191 infected via intranasal administration. At 2 and 12 hours mice were dosed orally with 50 mg/kg compound. At 24 hours following initiation of treatment, mice were euthanized and bacterial reduction in the lung was quantified by plating lung homogenates. Data was recorded as log10 reduction in lung colony forming units versus an untreated control group.
# [7] = Monkey PK; assay type: in vivo; settings: cynomolgus monkey, plasma, cynomolgus monkeys; for bioavailability: PO 10 mg/kg vs IV 1 mg/kg, read-out: % F (oral bioavailability), monkey
# Description: Compounds S24-9-23 and S16-10-161 were evaluated in 3 non-naïve cynomolgus monkeys. Each animal received a single IV dose of 1 mg/kg and after a 7-day washout, received a single PO dose of 10 mg/kg. Nine to ten plasma samples were drawn for each dosing route up to 24 hours into heparin-coated vacutainer tubes. Dose formulations were verified with a 5-point calibration curve. The plasma concentration of the compound was quantified by LC/MS/MS using an internal standard.
# [8] = system: S. aureus ATCC 13709; test: Neutropenic thigh model; assay type: in vivo; settings: neutropenic female CD-1 mice, IV, doses ranging 0.3 to 30 or 0.3 to 20 mg/kg, 24 hours post treatment
# Description: Neutropenic Thigh Model Female CD-1 mice were pre-treated with cyclophosphamide to render the mice neutropenic. Mice were infected with S. aureus ATCC 13709 via injection of 0.1 ml into the right thigh muscle of each mouse. One and a half hours post infection mice were treated IV with test compounds in doses ranging from 0.3 to 30 mg/kg or 0.3 to 20 mg/kg. Four mice were treated with each drug concentration. Twenty-four hours post treatment, mice were euthanized by CO2 inhalation. The right thighs of the mice were aseptically removed, weighed, homogenized, serially diluted, and plated on TSA medium. The plates were incubated overnight at 37° C. in 5% CO2. Colony forming units per gram of thigh was calculated by enumerating the plated colonies then adjusting for serial dilutions and the weight of the thigh.
# [9] = IV, read-out: SA Smith septicemia PD50 IV
# [10] = PO, read-out: SA Smith septicemia PD50 PO
# [11] = IV 1 mg/kg, read-out: AUC, IV Rat PK
# [12] = oral gavage 10 mg/kg, read-out: AUC, Oral Rat PK
# [13] = Escherichia coli, po, 36 h, read-out: EC200 UTI PO, log10 reduction in CFUs in the kidney versus untreated controls
# [14] = single IV dose of 1 mg/kg, read-out: AUC, IV, monkey
# [15] = single PO dose of 10 mg/kg, read-out: AUC, oral, monkey
# [16] = single PO dose of 10 mg/kg, read-out: Cmax, oral, monkey
SMILES,Bacterial Reduction in the Lung (Log10 change from 24 hour control) [1] [Log10],responders at 3 mg/kg [2] [%],responders at 30 mg/kg [2] [%],"ED50 [2, 10] [mg/kg]",clearance ([3]; IV 1 mg/kg) [L/h/kg],bioavailability [3] [%],"AUC [3, 11] [µg·h/mL]",Cmax ([3]; IV 1 mg/kg) [µg/mL],"AUC [3, 12] [µg·h/mL]","log reduction at 2 mg/kg [4, 13]",log reduction at 50 mg/kg [5],Bacterial Reduction in the Lung (Log10 change from 24 hour control) [6] [Log10],"EC200 UTI IV, log10 reduction in CFUs in the kidney versus untreated controls [4]","KP453 ESBL UTI IV, log10 reduction in CFUs in the kidney versus untreated controls [5] [log10]",further results
CCC(C)(C)N(C)Cc1cc(O)c2c(c1F)C[C@H]1C[C@H]3[C@H](N(C)C)C(O)=C(C(N)=O)C(=O)[C@@]3(O)C(O)=C1C2=O [Compound S2-4-28],−0.06,100,100,3,1.06,44.7,0.97,0.17,4.38,–,–,–,–,–,"ED50 [2, 9]: 0.62 mg/kg"
C[C@H]1CC[C@H](C)N1Cc1cc(O)c2c(c1Cl)C[C@H]1C[C@H]3[C@H](N(C)C)C(O)=C(C(N)=O)C(=O)[C@@]3(O)C(O)=C1C2=O [Compound S15-13-223],−0.12,100,100,–,–,–,–,–,–,2.27,1.32,–,–,–,–
CN(C)[C@@H]1C(O)=C(C(N)=O)C(=O)[C@@]2(O)C(O)=C3C(=O)c4c(O)c(N)c(CN5CCCCCC5)c(Cl)c4C[C@H]3C[C@@H]12 [Compound S29-2-4],–,100,83,–,–,–,–,–,–,–,–,−1.29,–,–,–
CN(C)c1c(CN2CCCCC2)cc(O)c2c1C[C@H]1C[C@H]3[C@H](N(C)C)C(O)=C(C(N)=O)C(=O)[C@@]3(O)C(O)=C1C2=O [Compound S16-10-161],–,100,100,–,0.768,31.6,1.31,0.689,4.44,1.85,1.04,–,@ 5 mpk −3.99 log10,−3.09,"bioavailability [7]: 42.7%; clearance ([7]; single IV dose of 1 mg/kg, read-out: Cl, IV, monkey (printed C1, mL/hr) (converted)): 184 mL/h; Vd ([7]; single IV dose of 1 mg/kg, read-out: Vdss, IV, monkey (unit inferred)): 4.05 L/kg; AUC [7, 14]: 5.68 µg·h/mL; Cmax ([7]; single IV dose of 1 mg/kg, read-out: Cmax, IV, monkey (unit inferred)): 0.861 µg/mL; AUC [7, 15]: 26 µg·h/mL; Cmax [7, 16]: 0.982 µg/mL"
CN(C)[C@@H]1C(O)=C(C(N)=O)C(=O)[C@@]2(O)C(O)=C3C(=O)c4c(O)cc(CN5CCCCCC5)c(Cl)c4C[C@H]3C[C@@H]12 [Compound S15-13-188],−0.22,100,100,8.3,–,–,–,–,–,–,1.55,–,–,–,"log reduction at 3 mg/kg ([4]; Escherichia coli, po, 36 h, PO @ 3 mpk, read-out: EC200 UTI PO, log10 reduction in CFUs in the kidney versus untreated controls): 3.48"
C[C@@H](NCc1cc(O)c2c(c1N(C)C)C[C@H]1C[C@H]3[C@H](N(C)C)C(O)=C(C(N)=O)C(=O)[C@@]3(O)C(O)=C1C2=O)C(C)(C)C [Compound S16-10-79],−4.31,100,100,–,–,–,–,–,–,–,–,−1.27,–,–,–
CC(C)CNCc1cc(O)c2c(c1F)C[C@H]1C[C@H]3[C@H](N(C)C)C(O)=C(C(N)=O)C(=O)[C@@]3(O)C(O)=C1C2=O [Compound S2-4-14],–,100,100,12.2,0.233,13.7,4.43,0.667,6.16,–,–,–,–,–,"ED50 [2, 9]: 0.84 mg/kg; log10 REDUCTION in colony forming units versus untreated control group (thigh) [8]: 3.68 log10"
COc1c(CN(C)C(C)(C)C2CC2)cc(O)c2c1C[C@H]1C[C@H]3[C@H](N(C)C)C(O)=C(C(N)=O)C(=O)[C@@]3(O)C(O)=C1C2=O [S24-9-21],−0.89,100,100,–,–,–,–,–,–,2.3,2.16,−1.98,@ 5 mpk −4.09 log10,−2.87,–
COc1c(CN2CCCCC2)cc(O)c2c1C[C@H]1C[C@H]3[C@H](N(C)C)C(O)=C(C(N)=O)C(=O)[C@@]3(O)C(O)=C1C2=O [Compound S24-9-23],–,100,100,–,0.556,12.2,1.83,0.795,2.23,2.99,2.93,–,@ 5 mpk −4.34 log10,−2.95,"bioavailability [7]: 36.8%; clearance ([7]; single IV dose of 1 mg/kg, read-out: Cl, IV, monkey (converted)): 0.144 L/h/kg; Vd ([7]; single IV dose of 1 mg/kg, read-out: Vdss, IV, monkey): 3.4 L/kg; AUC [7, 14]: 7.07 µg·h/mL; Cmax ([7]; single IV dose of 1 mg/kg, read-out: Cmax, IV, monkey): 1.37 µg/mL; AUC [7, 15]: 22.8 µg·h/mL; Cmax [7, 16]: 1.35 µg/mL"
